Reference: ChEMBL document CHEMBL1201862, “PubChem BioAssay data set” (2004)
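How tested: cells in 96-well plates exposed to compound for 48 hours at five concentrations. GI50 marks 50% less growth.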 Calls of active or inactive are those of the source. Cut-off read from the data, not from the text of the source: active = GI50 up to about 1.1 µM and inactive = higher.

Assays:
Assay in all cases: NCI tumour cell line growth inhibition, 48 h
SK-MEL-28 = system: SK-MEL-28
SNB-75 = system: SNB-75
MDA-MB-435 = system: MDA-MB-435
NCI-H226 = system: NCI-H226
RPMI-8226 = system: RPMI-8226
HCC 2998 = system: HCC 2998
PC-3 = system: PC-3
EKVX = system: EKVX
786-0 = system: 786-0
SR = system: SR
LOX IMVI = system: LOX IMVI
NCI/ADR-RES = system: NCI/ADR-RES
OVCAR-4 = system: OVCAR-4
UO-31 = system: UO-31
ACHN = system: ACHN
M14 = system: M14
COLO 205 = system: COLO 205
A549 = system: A549
SK-MEL-2 = system: SK-MEL-2
MCF7 = system: MCF7

Row | Compound | GI50 (SK-MEL-28) | GI50 (SNB-75) | GI50 (MDA-MB-435) | GI50 (NCI-H226) | GI50 (RPMI-8226) | GI50 (HCC 2998) | GI50 (PC-3) | GI50 (EKVX) | GI50 (786-0) | GI50 (SR) | GI50 (LOX IMVI) | GI50 (NCI/ADR-RES) | GI50 (OVCAR-4) | GI50 (UO-31) | GI50 (ACHN) | GI50 (M14) | GI50 (COLO 205) | GI50 (A549) | GI50 (SK-MEL-2) | GI50 (MCF7)
1 | CC(C)NC(=O)OCc1c(COC(=O)NC(C)C)c(-c2ccc[n+](COC(=O)CC(C)(C)C)c2)n2c1CCC2 | > 100 µM (inactive) | 67.6 µM (inactive) | > 100 µM (inactive) | > 100 µM (inactive) | > 100 µM (inactive) | > 100 µM (inactive) | 58.5 µM (inactive) | > 100 µM (inactive) | 38.4 µM (inactive) | 71.1 µM (inactive) | 78.3 µM (inactive) | 71 µM (inactive) | > 100 µM (inactive) | 93.8 µM (inactive) | 35.6 µM (inactive) | > 100 µM (inactive) | 89.3 µM (inactive) | > 100 µM (inactive) | > 100 µM (inactive) | 70.1 µM (inactive)
2 | S=c1[nH]c2ccc(Br)cc2c(=S)s1 | 52.7 µM (inactive) | 28.1 µM (inactive) | 23.2 µM (inactive) | 28.7 µM (inactive) | 29.2 µM (inactive) | 26.1 µM (inactive) | 19.3 µM (inactive) | 27.8 µM (inactive) | 30.8 µM (inactive) | 38.5 µM (inactive) | 32.4 µM (inactive) | 28.6 µM (inactive) | 10.8 µM (inactive) | 22.1 µM (inactive) | 22.2 µM (inactive) | 30.5 µM (inactive) | 16.4 µM (inactive) | 30.6 µM (inactive) | 20.6 µM (inactive) | 17.9 µM (inactive)
3 | Cc1cccc(NC(=O)c2cccc([N+](=O)[O-])c2O)c1C | 44.5 µM (inactive) | 22.8 µM (inactive) | 29.2 µM (inactive) | 22.1 µM (inactive) | 3.14 µM (inactive) | 28.4 µM (inactive) | 20.2 µM (inactive) | 26.7 µM (inactive) | 37.7 µM (inactive) | 20.1 µM (inactive) | 23 µM (inactive) | 16.5 µM (inactive) | 26.6 µM (inactive) | 17.9 µM (inactive) | 28.6 µM (inactive) | 41.5 µM (inactive) | 18.1 µM (inactive) | 21.5 µM (inactive) | 4.92 µM (inactive) | 27.4 µM (inactive)
4 | CN(C)CC1CC/C(=C\c2ccc3c(c2)OCO3)C1=O (stereo not given) | 10.5 µM (inactive) | 5.53 µM (inactive) | 1.93 µM (inactive) | 20.4 µM (inactive) | 1.85 µM (inactive) | 22.1 µM (inactive) | 13.6 µM (inactive) | 18.9 µM (inactive) | 6.85 µM (inactive) | 2.82 µM (inactive) | 1.95 µM (inactive) | 2.79 µM (inactive) | 9.29 µM (inactive) | 10.6 µM (inactive) | 13.9 µM (inactive) | 7.4 µM (inactive) | 8.49 µM (inactive) | 28.2 µM (inactive) | 13 µM (inactive) | 3.96 µM (inactive)
5 | COc1ccc(-c2cc(-c3ccc(Nc4ccnc5cc(Cl)ccc45)cc3)[nH]c(=O)c2C#N)c2ccccc12 | 3.34 µM (inactive) | 3.2 µM (inactive) | 1.87 µM (inactive) | > 100 µM (inactive) | 2.6 µM (inactive) | 5.51 µM (inactive) | 19.5 µM (inactive) | > 77.1 µM (inactive) | 3.4 µM (inactive) | 0.413 µM (active) | 1.36 µM (inactive) | > 100 µM (inactive) | 1.79 µM (inactive) | 5.32 µM (inactive) | 27.5 µM (inactive) | 2.03 µM (inactive) | 2.44 µM (inactive) | 18.1 µM (inactive) | 14.1 µM (inactive) | 1.92 µM (inactive)
6 | Cc1cc(C)c2c(O)cc(-c3cccc(F)c3)nc2n1 | 0.115 µM (active) | 0.0692 µM (active) | < 0.01 µM (active) | 0.168 µM (active) | 0.139 µM (active) | 0.301 µM (active) | 0.0718 µM (active) | 0.45 µM (active) | 0.177 µM (active) | 0.0169 µM (active) | 0.191 µM (active) | 0.0422 µM (active) | 4.08 µM (inactive) | 12.9 µM (inactive) | 0.0953 µM (active) | 0.0521 µM (active) | 0.043 µM (active) | 0.0847 µM (active) | 0.098 µM (active) | 0.0308 µM (active)
